In US20120064519A1, “SYSTEM AND METHOD FOR DUAL-DETECTION OF A CELLULAR RESPONSE” (priority 2007, published 2012):

System: A431 cells
Experiment: EW-excited fluorescence of IRDye labeled EGF interacting with A431 cells on RWG biosensor microplate
Type: cell-based, human
Description: 384-well Epic® cell assay microplates were obtained from Corning Inc. (Corning, N.Y.). The surface of each Epic® cell assay microplate is tissue culture compatible and enables the attachment and normal growth of adherent cells, including native cells, recombinant or engineered cell lines, primary cells, and like cells.
Cell culturing—Human epidermoid carcinoma A431 cells (American Type Cell Culture) were grown in Dulbecco's modified Eagle's medium (DMEM) supplemented with 10% fetal bovine serum (FBS), 4.5 g/liter glucose, 2 mM glutamine, and antibiotics. About 1.5 to about 2×10^4 cells at passage 3 to 15 suspended in 200 microliters of the DMEM medium containing 10% FBS were placed in each well of a 384-well microplate. After cell seeding, the cells were cultured at 37° C. under air/5% CO2 until about 95% confluency was reached (about 1-2 days). The confluent cells were washed with serum-free medium and incubated in the same medium at 37° C. under air/5% CO2 for 20 hours. On the day of assay, the cells were washed with HBSS (Hanks Balanced Salt Solution with 20 mM HEPES) buffer. The resulting A431 cells were assayed without or with pretreatment with modulators including, for example, AG1478, dynamin inhibitory peptide (DIPC), or unlabeled EGF. The EGFR was activated with the IRDye® labeled EGF and the resultant DMR signals were then recorded.
Optical system—An optical detection system is constructed and used for dual-detection of both EW-based labeled-free signal and EW-excited fluorescence of IR dye molecules as shown in FIG. 2C.
FIGS. 12A to 12D show measured fluorescence intensities of A431 cells cultured on the biosensor microplate surfaces in response to stimulation with IRDye® labeled EGF (64 nM), as a function of time.

[1] = pretreatment 10 micromolar for 1 hr, then IRDye labeled EGF 64 nM (FIG. 12C)

COc1cc2ncnc(Nc3cccc(Cl)c3)c2cc1OC [AG1478]
effect on decay phase in fluorescence intensity [1]: completely blocked
effect on initial increase phase in fluorescence intensity [1]: complicated effects

unlabeled EGF: epidermal growth factor; causes receptor internalization and desensitization; obtained from Sigma
effect on both the increase and decrease phase in fluorescence intensity (pretreatment 32 nM for 1 hr, then IRDye labeled EGF 64 nM (FIG. 12D)): almost completely blocked

IRDye-EGF: near-infrared (NIR) labeled recombinant human epidermal growth factor, 54 amino acid residues, conjugated with the IRDye fluorophore; LI-COR Biosciences
fluorescence intensity as a function of time (IRDye labeled EGF 64 nM, A431 cells without any pretreatment (FIG. 12A)): an initial increase in fluorescence; and thereafter by a slow decrease in fluorescence
